Assay results: PMC8674143, “Accuracy mechanism of eukaryotic ribosome translocation” (Nature, 2021)

Molecular target: T1, eEF2 (Saccharomyces cerevisiae, UniProt P32324)
T1 construct: gene EFT1; native full-length eEF2 purified from yeast, diphthamide at residue 699
Assay: X-ray crystallography, […] Å
Type: binding
Details: on the 80S ribosome with mRNA, Phe-tRNAPhe and fMet-tRNAfMet; GTP pocket of G domain, next to sarcin-ricin loop; Mg2+; 0.25 mM ligand

T1 sequence (P32324 whole entry): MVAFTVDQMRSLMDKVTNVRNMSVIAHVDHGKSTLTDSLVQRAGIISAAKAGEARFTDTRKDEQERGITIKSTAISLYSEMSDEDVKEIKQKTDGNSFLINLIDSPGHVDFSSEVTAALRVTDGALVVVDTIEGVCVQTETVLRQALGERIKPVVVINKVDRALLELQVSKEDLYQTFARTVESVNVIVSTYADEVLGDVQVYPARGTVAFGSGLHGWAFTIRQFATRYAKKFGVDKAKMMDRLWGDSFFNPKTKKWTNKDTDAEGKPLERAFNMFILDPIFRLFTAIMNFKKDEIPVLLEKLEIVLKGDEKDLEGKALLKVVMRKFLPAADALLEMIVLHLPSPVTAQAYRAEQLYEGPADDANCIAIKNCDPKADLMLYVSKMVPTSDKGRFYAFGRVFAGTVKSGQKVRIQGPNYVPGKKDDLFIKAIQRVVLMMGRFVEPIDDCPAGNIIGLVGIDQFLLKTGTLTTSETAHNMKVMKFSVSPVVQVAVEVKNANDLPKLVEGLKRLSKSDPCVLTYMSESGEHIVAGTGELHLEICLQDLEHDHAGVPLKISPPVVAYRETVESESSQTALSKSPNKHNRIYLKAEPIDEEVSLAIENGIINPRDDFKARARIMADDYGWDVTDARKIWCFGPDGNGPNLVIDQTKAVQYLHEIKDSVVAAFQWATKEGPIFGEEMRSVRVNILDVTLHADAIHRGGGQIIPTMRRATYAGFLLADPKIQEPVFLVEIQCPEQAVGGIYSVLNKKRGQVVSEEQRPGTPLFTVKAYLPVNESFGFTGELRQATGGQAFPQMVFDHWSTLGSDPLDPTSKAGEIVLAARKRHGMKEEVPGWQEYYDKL

With Nc1nc2c(ncn2[C@@H]2O[C@H](COP(=O)(O)OP(=O)(O)CP(=O)(O)O)[C@@H](O)[C@H]2O)c(=O)[nH]1 [GMPPCP] the “X-ray crystallography, 3.2 Å” value was “native S. cerevisiae eEF2, the nonhydrolyzable GTP analogue GMPPCP, mRNA and two tRNAs”.
